From patent US20230175066A1, “ANALYSIS/DIAGNOSIS METHOD UTILIZING RNA MODIFICATION” (OSAKA UNIVERSITY, priority 2018, published 2023)

Experiments:
[1] = tested on: trifluridine resistant strain of cancer cell strain DLD-1; test: IC50 for trifluridine in the trifluridine resistant strain prepared from DLD-1; format: cell-based; conditions: Homo sapiens; DLD-1 after maintenance culture for 6 months or more in the presence of trifluridine (about 10 mg/mL)
Description: The cancer cell strain DLD-1 obtained from a cell bank such as ATCC or RIKEN was subjected to maintenance culture for 6 months or more in the presence of trifluridine (FTD) (Aldrich-Sigma) (about 10 mg/mL). The maintenance culture was subcultured about twice a week to maintain 60 to 80% confluence at 37° C. in a serum 10% added DMEM medium on a plastic dish.

[2] = tested on: DLD-1 cell strain, 5-FU resistant strain, FTD resistant strain; set-up: methylation on microRNA, FTD resistant strain / miRNA methylation, FTD resistant strain: unit not given here; conditions: for Rate of change, FTD resistance (fold) / Rate of change, FTD (fold): FTD resistant versus parental strain; for methylation on microRNA, FTD parental strain / methylation on microRNA, FTD resistant strain: RIP sequencing; for methylation on microRNA, FTD parental strain: DLD-1, FTD parental strain; for methylation on microRNA, FTD resistant strain: DLD-1 FTD resistant strain; for miRNA methylation, FTD parental strain / miRNA methylation, FTD resistant strain: miRNAs that decrease post-surgery
Description: For an original DLD-1 cell strain and each resistant strain (5-FU resistant strain and FTD resistant strain), RNA methylation analysis in accordance with the protocol for RIP sequencing described above and microarray or mRNA expression analysis similar to the qRT-PCR of Example 2-2 was performed. RIP sequencing and RNA expression information based primary component analysis (two dimensional projection using a component resulting in maximum dispersion) was performed. The results are represented as mean ± standard deviation (SD) based on three independent experiments. The statistical significance of the results was evaluated by pairwise T-TEST using R version 3.4.3 (2017-11-30) on Microsoft Excel® software (Microsoft Campus, Redmond, WA, USA). P value < 0.05 was considered statistically significant. As a result, wild-type strain and each resistant strain was clearly distinguished. […] Total RNA was purified in accordance with the protocol for Trizol (Invitrogen) from the original DLD-1 cell strain and each resistant strain (5-FU resistant strain and FTD resistant strain), and then RNA methylation analysis was performed according to the protocol for RIP sequencing described above. Ribo-Zero rRNA Removal Kit (Illumina) was used for the removal of rNRAs.

Row | IC50 [1] | Compound | Rate of change, 5-FU resistance (fold) [2] | methylation on microRNA, 5-FU parental strain [2] | methylation on microRNA, 5-FU resistant strain [2] | Rate of change, FTD resistance (fold) [2] | methylation on microRNA, FTD parental strain [2] | methylation on microRNA, FTD resistant strain [2] | Rate of change 5-FU (fold) [2] | miRNA methylation, 5-FU parental strain [2] | miRNA methylation, 5-FU resistant strain [2] | miRNA methylation, FTD parental strain [2] | miRNA methylation, FTD resistant strain [2] | Rate of change, FTD (fold) [2]
1 | 300 µM | O=c1[nH]c(=O)n([C@H]2C[C@H](O)[C@@H](CO)O2)cc1C(F)(F)F [trifluridine] |  |  |  |  |  |  |  |  |  |  |  | 
2 |  | miR-378d (ACUGGACUUGGAGUCAGAAA; chemistry not fully specified; listed as Homo sapiens) | 1.54 fold | 144 | 30 | 0.36 fold | 80 | 63 |  |  |  |  |  | 
3 |  | miR-378e (ACUGGACUUGGAGUCAGGA; chemistry not fully specified; listed as Homo sapiens) | 1.64 fold | 11 | 2 | 0.86 fold | 3 | 6 |  |  |  |  |  | 
4 |  | miR-378f (ACUGGACUUGGAGCCAGAAG; chemistry not fully specified; listed as Homo sapiens) | 0.67 fold | 3 | 1 | (0.50) fold | 2 | 1 |  |  |  |  |  | 
5 |  | miR-378h (ACUGGACUUGGUGUCAGAUGG; chemistry not fully specified; listed as Homo sapiens) | 0.00 fold | 1 | 0 |  | 0 | 0 |  |  |  |  |  | 
6 |  | miR-378i (ACUGGACUAGGAGUCAGAAGG; chemistry not fully specified; listed as Homo sapiens) | 0.50 fold | 18 | 1 | 0.33 fold | 6 | 3 |  |  |  |  |  | 
7 |  | miR-492 (AGGACCUGCGGGACAAGAUUCUU; chemistry not fully specified; listed as Homo sapiens) |  | 0 | 0 |  | 0 | 0 |  |  |  |  |  | 
8 |  | miR-3122 (GUUGGGACAAGAGGACGGUCUU; chemistry not fully specified; listed as Homo sapiens) |  | 0 | 2 |  | 0 | 0 |  |  |  |  |  | 
9 |  | miR-3131 (UCGAGGACUGGUGGAAGGGCCUU; chemistry not fully specified; listed as Homo sapiens) | (0.33) fold | 9 | 3 | (10.00) fold | 1 | 10 |  |  |  |  |  | 
10 |  | miR-3690 (ACCUGGACCCAGCGUAGACAAAG; chemistry not fully specified; listed as Homo sapiens) |  | 0 | 0 | 0.00 fold | 1 | 0 |  |  |  |  |  | 
11 |  | miR-4435 (AUGGCCAGAGCUCACACAGAGG; chemistry not fully specified; listed as Homo sapiens) |  |  |  |  |  |  | 2.38 fold | 28 | 14 | 46 | 100 | 1.41 fold
12 |  | miR-4467 (UGGCGGCGGUAGUUAUGGGCUU; chemistry not fully specified; listed as Homo sapiens) |  |  |  |  |  |  | (1.00) fold | 6 | 6 | 1 | 12 | 8.00 fold
13 |  | miR-4754 (AUGCGGACCUGGGUUAGCGGAGU; chemistry not fully specified; listed as Homo sapiens) | (1.33) fold | 3 | 4 | 0.00 fold | 4 | 0 |  |  |  |  |  | 
